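Where inhibition never reached the appropriate level, the endpoint shown equals the highest concentration tested. Otherwise, values were interpolated linearly from a five-concentration, 48-hour dose response in 96-well plates. TGI is the concentration that stops growth completely.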
How the values were obtained:
Assay in all cases: NCI-60 cell line screen, 48 h
HS 578T breast = test system: HS 578T breast
ACHN renal = test system: ACHN renal
UACC-257 melanoma = test system: UACC-257 melanoma
A549 NSCLC = test system: A549 NSCLC
SF-295 CNS = test system: SF-295 CNS
CCRF-CEM leukemia = test system: CCRF-CEM leukemia
M14 melanoma = test system: M14 melanoma
HCT-116 colon = test system: HCT-116 colon
NCI-H460 lung = test system: NCI-H460 lung
IGROV1 ovarian = test system: IGROV1 ovarian

Structure (SMILES) | TGI (HS 578T breast) | TGI (ACHN renal) | TGI (UACC-257 melanoma) | TGI (A549 NSCLC) | TGI (SF-295 CNS) | TGI (CCRF-CEM leukemia) | TGI (M14 melanoma) | TGI (HCT-116 colon) | TGI (NCI-H460 lung) | TGI (IGROV1 ovarian)
C[N+](CCCl)(CCCl)Cc1cccc2cccc([N+](=O)[O-])c12 | > 100 µM | > 100 µM | > 100 µM | > 100 µM | > 100 µM | > 100 µM | > 100 µM | > 100 µM | > 100 µM | > 100 µM
CC(C)C(=O)[C@@]1(C)SC[C@H]2CCN=C21 | > 100 µM | > 100 µM | > 100 µM | > 100 µM | > 100 µM | > 100 µM | > 100 µM | > 100 µM | > 100 µM | > 100 µM
O=c1[nH]c2c(nc1NC13CC4CC(CC(C4)C1)C3)c(=O)oc1ccccc12 | – | > 100 µM | > 100 µM | > 100 µM | – | > 100 µM | > 100 µM | > 100 µM | > 100 µM | > 100 µM
CNC(C#N)c1ccc(OC)cc1 (configuration not stated) | > 100 µM | > 100 µM | > 100 µM | > 100 µM | > 100 µM | > 100 µM | > 100 µM | > 100 µM | > 100 µM | > 100 µM
COC(=O)C1=C(C)NC2=C(C(=O)c3ccccc32)C1c1cn(-c2ccccc2)nc1-c1ccccc1 (configuration not stated) | > 100 µM | > 100 µM | > 100 µM | > 100 µM | > 100 µM | > 100 µM | > 100 µM | > 100 µM | – | > 100 µM
CCOC(=O)c1c(-c2ccc(OC)cc2)c(C#N)c(=S)n(C2OC(COC(C)=O)C(OC(C)=O)C(OC(C)=O)C2OC(C)=O)c1-c1ccccc1 (configuration not stated) | > 100 µM | > 100 µM | > 100 µM | > 100 µM | > 100 µM | > 100 µM | > 100 µM | > 100 µM | > 100 µM | > 100 µM
CCOc1cc2c(OCc3ccccc3)cc3c4cc(OC)c(OC)cc4c[n+](C)c3c2cc1OC | – | > 75.2 µM | 4.95 µM | 24.2 µM | > 86.3 µM | 23 µM | 9.73 µM | – | > 58.9 µM | –
COc1ccc(N2C(=O)C(=O)N(c3ccccc3[N+](=O)[O-])C2=S)cc1 | 84 µM | 74.8 µM | 47.3 µM | > 100 µM | > 100 µM | > 100 µM | – | > 100 µM | > 100 µM | > 100 µM
CN=c1nc2sc3c(c2c(NC(=S)NC)s1)CCCC3 | 97.4 µM | > 100 µM | > 100 µM | – | > 100 µM | > 100 µM | – | > 100 µM | > 100 µM | > 100 µM
COC(=O)CCC1=CCC2(SC)C(=O)Nc3cccc1c32 (configuration not stated) | > 100 µM | > 100 µM | > 100 µM | > 100 µM | > 100 µM | > 100 µM | > 100 µM | > 100 µM | > 100 µM | > 100 µM
O=C1NC(=O)C(c2c[nH]c3ccccc23)=C1c1cnc[nH]1 | > 100 µM | > 100 µM | > 100 µM | > 100 µM | > 100 µM | > 100 µM | > 100 µM | > 100 µM | > 100 µM | > 100 µM
NS(=O)(=O)c1ccc(N=Nc2nc3[nH]c(=O)[nH]c(=O)c3[nH]2)cc1 | > 100 µM | > 100 µM | > 100 µM | > 100 µM | > 100 µM | – | > 100 µM | > 100 µM | > 100 µM | > 100 µM
CCCCN(CCCC)CC(O)c1cc(-c2ccc(C(F)(F)F)cc2)nc(-c2ccc(C(F)(F)F)cc2)c1 (configuration not stated) | – | > 100 µM | > 100 µM | – | > 100 µM | > 100 µM | > 100 µM | > 100 µM | > 100 µM | > 100 µM
CC(=O)Nc1ccc(N2C(=O)/C(=C\c3cccc(Oc4ccccc4)c3)S(=O)(=O)C2c2ccccc2)cc1 (configuration not stated) | – | > 100 µM | > 100 µM | > 100 µM | > 100 µM | > 100 µM | > 100 µM | > 100 µM | > 100 µM | > 100 µM
CNc1ccc(C(=O)CC(O)CCC(C)C2OC(=O)CC(O)CC(=O)CC(O)CC(O)CC(O)CC(O)CC3(O)CC(O)C(C(=O)NCCN(C)C)C(CC(OC4OC(C)C(O)C(NC(=O)CN5CCN(C)CC5)C4O)/C=C/C=C/C=C/C=C\C=C/C=C/C=C/C2C)O3)cc1 (configuration not stated) | – | – | 71 µM | > 100 µM | > 100 µM | – | > 100 µM | – | > 100 µM | > 100 µM
CC(C)(C)[Si](OC1CC(n2cnc3c(N)ncnc32)OC1CO)(c1ccccc1)c1ccccc1 (configuration not stated) | – | 31.8 µM | > 100 µM | 30 µM | 30.5 µM | > 100 µM | > 100 µM | 31.3 µM | 30.7 µM | 48 µM
CCN(CC)CC1CCCCCCCCCCC1=O (configuration not stated) | – | > 100 µM | > 100 µM | > 100 µM | > 100 µM | > 100 µM | > 100 µM | > 100 µM | > 100 µM | > 100 µM
COc1ccccc1/C(=N\OCCC(=O)O)c1cccs1 | > 100 µM | > 100 µM | > 100 µM | > 100 µM | > 100 µM | > 100 µM | – | > 100 µM | > 100 µM | –
Nc1ccc2c(c1)N(C(=O)c1cc3cc(NC(=O)c4cc5ccccc5o4)ccc3[nH]1)CC2CCl (configuration not stated) | 0.696 µM | 11.6 µM | – | > 34.1 µM | – | – | – | > 32.2 µM | > 32.8 µM | > 100 µM
CC(=O)c1ccc(NCc2cc(O)ccc2O)cc1 | > 100 µM | 33 µM | 33.9 µM | – | 34.6 µM | > 100 µM | 38.4 µM | 37.4 µM | 39.9 µM | > 100 µM
CC(C)(C)OC(=O)N1CCc2[nH][nH]c(=O)c2C1 | > 100 µM | – | > 100 µM | > 100 µM | > 100 µM | > 100 µM | > 100 µM | > 100 µM | > 100 µM | > 100 µM
CCCCc1c(N(C)C)c(OC(C)=O)c(-c2cn(C)c3ccccc23)oc1=O | > 100 µM | > 100 µM | 59.8 µM | > 100 µM | > 100 µM | > 100 µM | 35.8 µM | 40.9 µM | > 100 µM | –

— PubChem BioAssay (NCI)
